Results taken from US20160158200A1, “Combinations of Hepatitis C Virus Inhibitors” (priority 2013, published 2016).

System: HCV genotype-1a variant with glutamine 30 changed to glutamate in the NS5A protein
Assay type: cell-based
Conditions: test compound titrated with BMS-790052 fixed at 200 nM; genotype 1a Q30E replicon
Summary of the method: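 Synergy was assessed by combining several fixed amounts of an NS5A-targeting compound with a titration of the second compound of interest.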

| SMILES | Fold-Synergistic 1a (Q30E) |
| --- | --- |
| CC1CN(C(=O)C(=O)N[C@H](c2nc(-c3ccc(-c4ccc(-c5c[nH]c([C@@H](NC(=O)C(=O)N6CC(C)OC(C)C6)C(C)(C)C)n5)cc4)cc3)c[nH]2)C(C)(C)C)CC(C)O1 (single isomer, unassigned) [Compound W-40A] | >100 fold |
| CC1CN(C(=O)C(=O)N[C@H](c2nc(-c3ccc(-c4ccc(-c5c[nH]c([C@@H](NC(=O)C(=O)N6CC(C)OC(C)C6)C(C)(C)C)n5)cc4)cc3)c[nH]2)C(C)(C)C)CC(C)O1 (single isomer, unassigned) [Compound W-40B] | >100 fold |
| CC1CN(C(=O)C(=O)N[C@H](c2nc(-c3ccc(-c4ccc(-c5c[nH]c([C@@H](NC(=O)C(=O)N6CC(C)OC(C)C6)C(C)(C)C)n5)cc4)cc3)c[nH]2)C(C)(C)C)CC(C)O1 (single isomer, unassigned) [Compound W-40C] | >100 fold |
| CC(C)(C)OC(=O)N1CC(F)(F)CC1(C)C(=O)N[C@H](c1nc(-c2ccc(-c3ccc(-c4c[nH]c([C@@H](NC(=O)C5(C)CC(F)(F)CN5C(=O)OC(C)(C)C)C(C)(C)C)n4)cc3)cc2)c[nH]1)C(C)(C)C (single isomer, unassigned) [Compound W-76] | >100 fold |
| CC(C)(C)OC(=O)N1CC(F)(F)CC1(C)C(=O)N[C@H](c1nc(-c2ccc(-c3ccc(-c4c[nH]c([C@@H](NC(=O)C5(C)CC(F)(F)CN5C(=O)OC(C)(C)C)C(C)(C)C)n4)cc3)cc2)c[nH]1)C(C)(C)C (single isomer, unassigned) [Compound W-77] | >100 fold |
| CC(C)(C)OC(=O)N1CC(F)(F)CC1(C)C(=O)N[C@H](c1nc(-c2ccc(-c3ccc(-c4c[nH]c([C@@H](NC(=O)C5(C)CC(F)(F)CN5C(=O)OC(C)(C)C)C(C)(C)C)n4)cc3)cc2)c[nH]1)C(C)(C)C (single isomer, unassigned) [Compound W-78] | >100 fold |
| CC1(C)CCCC(C)(C(=O)N[C@H](c2nc(-c3ccc(-c4ccc(-c5c[nH]c([C@@H](NC(=O)C6(C)CCCC(C)(C)O6)C(C)(C)C)n5)cc4)cc3)c[nH]2)C(C)(C)C)O1 (single isomer, unassigned) [Compound W-167] | >100 fold |
| CC1(C)CCCC(C)(C(=O)N[C@H](c2nc(-c3ccc(-c4ccc(-c5c[nH]c([C@@H](NC(=O)C6(C)CCCC(C)(C)O6)C(C)(C)C)n5)cc4)cc3)c[nH]2)C(C)(C)C)O1 (single isomer, unassigned) [Compound W-168] | >10 fold |
| CC1(O)CC(C(=O)N[C@H](c2nc(-c3ccc(-c4ccc(-c5c[nH]c([C@@H](NC(=O)C6CC(C)(O)C6)C(C)(C)C)n5)cc4)cc3)c[nH]2)C(C)(C)C)C1 (single isomer, unassigned) [Compound W-169] | >100 fold |
| CC1(O)CC(C(=O)N[C@H](c2nc(-c3ccc(-c4ccc(-c5c[nH]c([C@@H](NC(=O)C6CC(C)(O)C6)C(C)(C)C)n5)cc4)cc3)c[nH]2)C(C)(C)C)C1 (single isomer, unassigned) [Compound W-170] | >100 fold |
| COC(C)(COCc1ccccc1)C(=O)N[C@H](c1nc(-c2ccc(-c3ccc(-c4c[nH]c([C@@H](NC(=O)C(C)(COCc5ccccc5)OC)C(C)(C)C)n4)cc3)cc2)c[nH]1)C(C)(C)C.O=C(O)C(F)(F)F.O=C(O)C(F)(F)F (single isomer, unassigned) [Compound W-230] | >100 fold |
| COC(C)(COCc1ccccc1)C(=O)N[C@H](c1nc(-c2ccc(-c3ccc(-c4c[nH]c([C@@H](NC(=O)C(C)(COCc5ccccc5)OC)C(C)(C)C)n4)cc3)cc2)c[nH]1)C(C)(C)C.O=C(O)C(F)(F)F.O=C(O)C(F)(F)F (single isomer, unassigned) [Compound W-231] | >100 fold |
| COC(C)(COCc1ccccc1)C(=O)N[C@H](c1nc(-c2ccc(-c3ccc(-c4c[nH]c([C@@H](NC(=O)C(C)(COCc5ccccc5)OC)C(C)(C)C)n4)cc3)cc2)c[nH]1)C(C)(C)C.O=C(O)C(F)(F)F.O=C(O)C(F)(F)F (single isomer, unassigned) [Compound W-232] | >100 fold |
| COC(C)(CO)C(=O)N[C@H](c1nc(-c2ccc(-c3ccc(-c4c[nH]c([C@@H](NC(=O)C(C)(CO)OC)C(C)(C)C)n4)cc3)cc2)c[nH]1)C(C)(C)C (single isomer, unassigned) [Compound W-234] | >10 fold |
| COC(C)(CO)C(=O)N[C@H](c1nc(-c2ccc(-c3ccc(-c4c[nH]c([C@@H](NC(=O)C(C)(CO)OC)C(C)(C)C)n4)cc3)cc2)c[nH]1)C(C)(C)C (single isomer, unassigned) [Compound W-237] | >100 fold |
| COC(C)(CCOCc1ccccc1)C(=O)N[C@H](c1nc(-c2ccc(-c3ccc(-c4c[nH]c([C@@H](NC(=O)C(C)(CCOCc5ccccc5)OC)C(C)(C)C)n4)cc3)cc2)c[nH]1)C(C)(C)C (single isomer, unassigned) [Compound W-256b] | >100 fold |
| COC(C)(CCO)C(=O)N[C@H](c1nc(-c2ccc(-c3ccc(-c4c[nH]c([C@@H](NC(=O)C(C)(CCO)OC)C(C)(C)C)n4)cc3)cc2)c[nH]1)C(C)(C)C (single isomer, unassigned) [Compound W-257] | >100 fold |
| COC(C)(CCO)C(=O)N[C@H](c1nc(-c2ccc(-c3ccc(-c4c[nH]c([C@@H](NC(=O)C(C)(CCO)OC)C(C)(C)C)n4)cc3)cc2)c[nH]1)C(C)(C)C (single isomer, unassigned) [Compound W-258] | >100 fold |
| COC(C)(CCO)C(=O)N[C@H](c1nc(-c2ccc(-c3ccc(-c4c[nH]c([C@@H](NC(=O)C(C)(CCO)OC)C(C)(C)C)n4)cc3)cc2)c[nH]1)C(C)(C)C (single isomer, unassigned) [Compound W-259] | >100 fold |
| CC(COCc1ccccc1)(OCCF)C(=O)N[C@H](c1nc(-c2ccc(-c3ccc(-c4c[nH]c([C@@H](NC(=O)C(C)(COCc5ccccc5)OCCF)C(C)(C)C)n4)cc3)cc2)c[nH]1)C(C)(C)C (single isomer, unassigned) [Compound W-261b] | >100 fold |
| CC(CO)(OCCF)C(=O)N[C@H](c1nc(-c2ccc(-c3ccc(-c4c[nH]c([C@@H](NC(=O)C(C)(CO)OCCF)C(C)(C)C)n4)cc3)cc2)c[nH]1)C(C)(C)C (single isomer, unassigned) [Compound W-270] | >100 fold |
| CC(CO)(OCCF)C(=O)N[C@H](c1nc(-c2ccc(-c3ccc(-c4c[nH]c([C@@H](NC(=O)C(C)(CO)OCCF)C(C)(C)C)n4)cc3)cc2)c[nH]1)C(C)(C)C (single isomer, unassigned) [Compound W-271] | >100 fold |
| CC(C)[C@H](NC(=O)C1CCCCO1)c1ncc(-c2ccc(-c3ccc(-c4cnc([C@@H](NC(=O)C5CCCCO5)C(C)C)[nH]4)cc3)cc2)[nH]1 (single isomer, unassigned) [Compound Y-55] | >10 fold |
